Experimental data as given in patent publication US9714231B2, “Pyrrolidine GPR40 modulators” (BRISTOL-MYERS SQUIBB COMPANY, priority 2012, dated 2017).
Counter-ions that a name gives are not always drawn.

target: human GPR40 (Homo sapiens, UniProt O14842); experiment: FDSS-based intracellular calcium assay (Human GRP40 in vitro assay); format: cell-based; parameters: 3xFLAG; expressed in transfected cells; conditions: cells expressing GPR40, intracellular Ca2+ response, FDSS reader; read-out: hGPR40 EC50
Sequence (O14842 whole entry): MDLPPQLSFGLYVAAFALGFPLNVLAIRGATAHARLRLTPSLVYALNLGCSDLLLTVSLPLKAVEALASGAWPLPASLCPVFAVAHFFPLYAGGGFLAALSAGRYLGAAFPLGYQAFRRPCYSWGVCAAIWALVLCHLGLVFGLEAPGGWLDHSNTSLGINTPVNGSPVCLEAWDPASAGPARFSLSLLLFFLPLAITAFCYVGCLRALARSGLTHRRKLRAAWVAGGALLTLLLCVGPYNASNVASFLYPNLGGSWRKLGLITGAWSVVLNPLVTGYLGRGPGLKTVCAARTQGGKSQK
Description: To conduct the fluorescent imaging plate reader (FLIPR)-based calcium flux assay to measure intracellular Ca^2+ response, cells expressing GPR40 are plated on 384 well plates (BD BIOCOAT® #356697) at a density of 20,000 cells/20 μL medium per well in phenol red and serum-free DMEM (GIBCO® #21063-029) and incubated overnight. Using BD kit #s 80500-310 or -301, the cells are incubated with 20 μL per well of Hank's buffered salt solution with 1.7 mM probenecid and Fluo-3 at 37° C. for 30 min. Compounds are dissolved in DMSO and diluted to desired concentrations with assay buffer and added to the cells as 3× solution (20 μL per well). Run fluorescence/luminescence reader FDSS (Hamamatsu) to read intracellular Ca^2+ response.

| EC50 [nM] | Structure (SMILES) |
| --- | --- |
| 160 | CCOc1ccc(F)c(N2CCC(Oc3ccc(N4C[C@H](OC)C[C@@H]4CC(=O)O)cc3)CC2)c1 [Example 107, 2-((2R,4R)-1-(4-((1-(5-Ethoxy-2-fluorophenyl)piperidin-4-yl)oxy)phenyl)-4-methoxypyrrolidin-2-yl)acetic acid, TFA] |
| 950 | CCOc1ccc(F)c(N2CCC(Oc3ccc(N4C[C@H](Oc5ccccc5C)C[C@@H]4CC(=O)O)cc3)CC2)c1 [Example 67, 2-((2R,4R)-1-(4-(1-(5-Ethoxy-2-fluorophenyl)piperidin-4-yloxy)phenyl)-4-(o-tolyloxy)pyrrolidin-2-yl)acetic acid] |
| 180 | COc1cc(N2CCC(Oc3ccc(N4C[C@H](OC)C[C@@H]4CC(=O)O)cc3)C(C)C2)c(Cl)cn1 (single isomer, unassigned) [Example 84, Isomer 2, TFA] |
| 710 | COc1ccc(F)c(N2CCC(Oc3ccc(N4C[C@H](OC)C[C@@H]4CC(=O)O)cc3)CC2C)c1 (single isomer, unassigned) [Example 13, Isomer 1, HCl] |
| 120 | CCO[C@@H]1C[C@H](CC(=O)O)N(c2ccc(OC3CCN(c4cc(OC)ccc4F)CC3)cc2)C1 [Example 2, 2-((2R,4R)-4-Ethoxy-1-(4-((1-(2-fluoro-5-methoxyphenyl)piperidin-4-yl)oxy)phenyl)pyrrolidin-2-yl)acetic acid, HCl] |
| 730 | COc1cc(N2CCC(Oc3ccc(N4C[C@H](OC)C[C@@H]4CC(=O)O)cc3)C(C)C2)c(Cl)cn1 (single isomer, unassigned) [Example 84, Isomer 1, TFA] |
| 66 | COc1ccc(F)c(N2CCC(Oc3ccc(N4CC(F)(F)C[C@@H]4CC(=O)O)cc3)CC2)c1 [Example 5, (S)-2-(4,4-Difluoro-1-(4-((1-(2-fluoro-5-methoxyphenyl)piperidin-4-yl)oxy)phenyl)pyrrolidin-2-yl)acetic acid, TFA] |
| 6000 | CCOc1ccc(F)c(N2CCC(Oc3ccc(N4C[C@H](C(F)(F)F)C[C@@H]4CC(=O)O)cc3)C(Cc3ccccc3)C2)c1 (single isomer, unassigned) [Example 36, Isomer 1, HCl] |
| 2500 | COc1ccc(F)c(N2C[C@@H](C)[C@@H](Oc3ccc(N4C[C@H](OC)C[C@@H]4CC(=O)O)cc3)[C@@H](C)C2)c1 [Example 56, 2-((2R,4R)-1-(4-(((3S,4S,5R)-1-(2-Fluoro-5-methoxyphenyl)-3,5-dimethylpiperidin-4-yl)oxy)phenyl)-4-methoxypyrrolidin-2-yl)acetic acid, HCl] |
| 120 | COc1ccc(C)c(N2CCC(Oc3ccc(N4C[C@H](OC)C[C@@H]4CC(=O)O)cc3)C(C)C2)c1 (single isomer, unassigned) [Example 64, Isomer 2] |
| 360 | CCOc1ccc(F)c(N2CCC(Oc3ccc(N4C[C@H](C(F)(F)F)C[C@@H]4CC(=O)O)c(F)c3)CC2)c1 [Example 143] |
| 4100 | O=C(O)C[C@H]1C[C@@H](C(F)(F)F)CN1c1ccc(OC2CCN(c3cccc(OC(F)(F)F)c3)CC2)cc1 [Example 24, 2-((2R,4R)-1-(4-((1-(3-(Trifluoromethoxy)phenyl)piperidin-4-yl)oxy)phenyl)-4-(trifluoromethyl)pyrrolidin-2-yl)acetic acid, HCl] |
| 320 | COc1ccc(F)c(N2CCC(Oc3ccc(N4C[C@H](Cc5ccccc5)C[C@@H]4CC(=O)O)cc3)CC2)c1 [Example 7, 2-((2R,4R)-4-Benzyl-1-(4-((1-(2-fluoro-5-methoxyphenyl)piperidin-4-yl)oxy)phenyl)pyrrolidin-2-yl)acetic acid, HCl] |
| 2100 | CCOc1ccc(F)c(N2CCC(Oc3ccc(N4C[C@H](C#N)C[C@@H]4CC(=O)O)cc3)CC2)c1 [Example 130, 2-((2R,4R)-4-Cyano-1-(4-((1-(5-ethoxy-2-fluorophenyl)piperidin-4-yl)oxy)phenyl)pyrrolidin-2-yl)acetic acid, TFA] |
| 8400 | COc1ccc(F)c(N2CCC(Oc3ccc(N4CC(C(F)(F)F)C(C)C4CC(=O)O)cc3)CC2)c1 (single isomer, unassigned) [Example 26, Isomer 2, 2-((2,3-trans,3,4-trans)-1-(4-((1-(2-Fluoro-5-methoxyphenyl)piperidin-4-yl)oxy)phenyl)-3-methyl-4-(trifluoromethyl)pyrrolidin-2-yl)acetic acid, HCl] |
| 310 | CCOc1ccc(F)c(N2CCC(Oc3ccc(N4C[C@H](Oc5cccc(C#N)c5)C[C@@H]4CC(=O)O)cc3)CC2)c1 [Example 68, 2-((2R,4R)-4-(3-Cyanophenoxy)-1-(4-(1-(5-ethoxy-2-fluorophenyl)piperidin-4-yloxy)phenyl)pyrrolidin-2-yl)acetic acid] |
| 140 | COc1ccc(Br)c(N2CCC(Oc3ccc(N4C[C@H](OC)C[C@@H]4CC(=O)O)cc3)CC2)c1 [Example 58, 2-((2R,4R)-1-(4-(1-(2-Bromo-5-methoxyphenyl)piperidin-4-yloxy)phenyl)-4-methoxypyrrolidin-2-yl)acetic acid, TFA] |
| 510 | CCOc1ccc(F)c(N2CCC(Oc3ccc(N4C[C@H](OC)[C@@H](C)[C@@H]4CC(=O)O)cn3)CC2)c1 [Example 95, 2-((2S,3S,4R)-1-(6-((1-(5-Ethoxy-2-fluorophenyl)piperidin-4-yl)oxy)pyridin-3-yl)-4-methoxy-3-methylpyrrolidin-2-yl)acetic acid, TFA] |
| 210 | COc1ccc(F)c(N2CCC(Oc3ccc(N4C[C@H](c5ccccc5)C[C@@H]4CC(=O)O)cc3)CC2)c1 [Example 3, 2-((2R,4S)-1-(4-((1-(2-Fluoro-5-methoxyphenyl)piperidin-4-yl)oxy)phenyl)-4-phenylpyrrolidin-2-yl)acetic acid, HCl] |
| 400 | COc1cc(N2CCC(Oc3ccc(N4C[C@H](C(F)(F)F)C[C@@H]4CC(=O)O)c(Cl)c3)C(C)C2)c(Cl)cn1 (stereo partly drawn) [Example 135, 2-((2R,4R)-1-(2-Chloro-4-(((3,4-trans)-1-(5-chloro-2-methoxypyridin-4-yl)-3-methylpiperidin-4-yl)oxy)phenyl)-4-(trifluoromethyl)pyrrolidin-2-yl)acetic acid, HCO2H] |
| 160 | CCO[C@H]1CN(c2ccc(OC3CCN(c4cc(OC)ncc4Cl)CC3C)cc2)[C@@H](CC(=O)O)[C@@H]1C (stereo partly drawn) [Example 158, 2-((2S,3S,4R)-1-(4-(((3,4-trans)-1-(5-Chloro-2-methoxypyridin-4-yl)-3-methylpiperidin-4-yl)oxy)phenyl)-4-ethoxy-3-methylpyrrolidin-2-yl)acetic acid, TFA] |
| 410 | COc1ccc(F)c(N2CCC(Oc3ccc(N4CC(F)(F)C[C@@H]4CC(=O)O)cc3)C(C)C2)c1 (single isomer, unassigned) [Example 53, Isomer 1, HCl] |
| 940 | COc1ccc(F)c(N2CC[C@H](COc3ccc(N4C[C@H](C(F)(F)F)C[C@@H]4CC(=O)O)cc3)C2)c1 [Example 10, 2-((2R,4R)-1-(4-(((S)-1-(2-Fluoro-5-methoxyphenyl)pyrrolidin-3-yl)methoxy)phenyl)-4-(trifluoromethyl)pyrrolidin-2-yl)acetic acid, HCl] |
| 64 | COc1ccc(F)c(N2CCC(Oc3ccc(N4C[C@H](OC)C[C@@H]4CC(=O)O)cc3)C(C)C2)c1 (single isomer, unassigned) [Example 17, Isomer 2] |
| 740 | CCOc1ccc(F)c(N2CCC(Oc3ccc(N4C[C@H](C(F)(F)F)C[C@@H]4CC(=O)O)cc3)C(Cc3ccccc3)C2)c1 (single isomer, unassigned) [Example 36, Isomer 2, HCl] |
| 5600 | COc1cc(N2CCC(Oc3ccc(N4C[C@H](OC)CC4CC(=O)O)c(F)c3F)C(C)C2)c(Cl)cn1 (single isomer, unassigned) [Example 141, Isomer 2] |
| 680 | COc1cccc(N2CCC(Oc3ccc(N4C[C@H](C(F)(F)F)C[C@@H]4CC(=O)O)cc3)CC2)c1 [Example 19, 2-((2R,4R)-1-(4-((1-(3-Methoxyphenyl)piperidin-4-yl)oxy)phenyl)-4-(trifluoromethyl)pyrrolidin-2-yl)acetic acid, HCl] |
| 180 | CCOc1ccc(F)c(N2CCC(Oc3ccc(N4C[C@H](OC)[C@@H](C)[C@@H]4CC(=O)O)cc3F)CC2)c1 [Example 101, 2-((2S,3S,4R)-1-(4-((1-(5-Ethoxy-2-fluorophenyl)piperidin-4-yl)oxy)-3-fluorophenyl)-4-methoxy-3-methylpyrrolidin-2-yl)acetic acid] |
| 420 | COc1cc(N2CCC(Oc3ccc(N4C[C@H](OC)[C@@H](C)[C@@H]4CC(=O)O)nc3)C(C)C2)c(Cl)cn1 (stereo partly drawn) [Example 166, 2-((2S,3S,4R)-1-(5-(((3,4-trans)-1-(5-Chloro-2-methoxypyridin-4-yl)-3-methylpiperidin-4-yl)oxy)pyridin-2-yl)-4-methoxy-3-methylpyrrolidin-2-yl)acetic acid] |
| 250 | CCOc1ccc(F)c(N2CCC(Oc3ccc(N4C[C@H](OC)[C@@H](CC)[C@@H]4CC(=O)O)cc3)CC2)c1 [Example 88, 2-((2S,3S,4R)-1-(4-((1-(5-Ethoxy-2-fluorophenyl)piperidin-4-yl)oxy)phenyl)-3-ethyl-4-methoxypyrrolidin-2-yl)acetic acid, TFA] |

| Structure (SMILES) | EC50 [nM] |
| --- | --- |
| CCCCOc1cc(N2C[C@H](OC)[C@@H](C)[C@@H]2CC(=O)O)cnc1OC1CCN(c2cc(OC)ncc2Cl)CC1C (stereo partly drawn) [Example 160, 2-((2S,3S,4R)-1-(5-Butoxy-6-(((3,4-trans)-1-(5-chloro-2-methoxypyridin-4-yl)-3-methylpiperidin-4-yl)oxy)pyridin-3-yl)-4-methoxy-3-methylpyrrolidin-2-yl)acetic acid] | 86 |
